This passage reports viability, T/C results from PubChem BioAssay AID2060508 (Molecular Pharmacology Branch, DTP, NCI, 2025).

Structures are written as SMILES.
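Also: spheroids exposed to compounds for seven days; 100% = DMSO vehicle control viability.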

The test system of one assay is 454973-116-R2-J3-PDC spheroids, viability, % test/control. As to the kind of experiment: Anticancer human tumor 454973-116-R2-J3-PDC patient-derived pancreatic carcinoma cell line growth inhibition [GQUAD]. To be noted: second compound 3.16 µM; first compound 0.1 µM; active compounds read low; spheroids with HUVEC and MSC. The gist of the method:
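Viability of tumor cells grown as complex spheroids with endothelial and stromal cells, exposed to drug combinations. Top concentration at or near clinical Cmax (else 10 microM), diluted in half-log increments.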
Consider `COc1ncnc(C2CC2)c1-c1ncc2cnn(Cc3ccc(-c4nc(C(F)(F)F)cn4C(C)C)cc3)c2n1` + Cc1[nH]c2ccc(F)cc2c1-c1nc2c3cccnc3c3ncccc3c2[nH]1, for which the viability, T/C is 97.3%.
As to `O=C(NO)c1cnc(N2CCN(S(=O)(=O)c3ccc4ccccc4c3)CC2)nc1` + Cc1[nH]c2ccc(F)cc2c1-c1nc2c3cccnc3c3ncccc3c2[nH]1, the viability, T/C was 93.7%.

The same assay, now with this note: second compound 3.16 µM; first compound 0.316 µM; active compounds read low; spheroids with HUVEC and MSC.
`C=CCn1c(=O)c2cnc(Nc3ccc(N4CCN(C)CC4)cc3)nc2n1-c1cccc(C(C)(C)O)n1` + Cc1[nH]c2ccc(F)cc2c1-c1nc2c3cccnc3c3ncccc3c2[nH]1: the viability, T/C was 51.8%.
On to `CC(C)(O)C1CCC(Nc2ccc3ncc(-c4cccc(C(F)(F)F)c4)n3n2)CC1` (configuration not stated) + Cc1[nH]c2ccc(F)cc2c1-c1nc2c3cccnc3c3ncccc3c2[nH]1, for which the viability, T/C was 90.9%.
Take `COc1ncnc(C2CC2)c1-c1ncc2cnn(Cc3ccc(-c4nc(C(F)(F)F)cn4C(C)C)cc3)c2n1` + Cc1[nH]c2ccc(F)cc2c1-c1nc2c3cccnc3c3ncccc3c2[nH]1: the viability, T/C was 99.4%.
On the same count and under the same terms, as for `O=C(NO)c1cnc(N2CCN(S(=O)(=O)c3ccc4ccccc4c3)CC2)nc1` + Cc1[nH]c2ccc(F)cc2c1-c1nc2c3cccnc3c3ncccc3c2[nH]1, the figure is 66.9%.

The assay is the same for the next values; noted with them: second compound 3.16 µM; first compound 1 µM; active compounds read low; spheroids with HUVEC and MSC.
On to `C=CCn1c(=O)c2cnc(Nc3ccc(N4CCN(C)CC4)cc3)nc2n1-c1cccc(C(C)(C)O)n1` + Cc1[nH]c2ccc(F)cc2c1-c1nc2c3cccnc3c3ncccc3c2[nH]1, for which the viability, T/C was 14.2%.
Take `CC(C)(O)C1CCC(Nc2ccc3ncc(-c4cccc(C(F)(F)F)c4)n3n2)CC1` (configuration not stated) + Cc1[nH]c2ccc(F)cc2c1-c1nc2c3cccnc3c3ncccc3c2[nH]1: the viability, T/C was 67.3%.
Regarding `COc1ncnc(C2CC2)c1-c1ncc2cnn(Cc3ccc(-c4nc(C(F)(F)F)cn4C(C)C)cc3)c2n1` + Cc1[nH]c2ccc(F)cc2c1-c1nc2c3cccnc3c3ncccc3c2[nH]1, the viability, T/C was 91.5%.
On the same count and under the same terms, with `O=C(NO)c1cnc(N2CCN(S(=O)(=O)c3ccc4ccccc4c3)CC2)nc1` + Cc1[nH]c2ccc(F)cc2c1-c1nc2c3cccnc3c3ncccc3c2[nH]1 the figure was 18.1%.

The same assay, now with this note: second compound 3.16 µM; first compound 3.16 µM; active compounds read low; spheroids with HUVEC and MSC.
Turning to `C=CCn1c(=O)c2cnc(Nc3ccc(N4CCN(C)CC4)cc3)nc2n1-c1cccc(C(C)(C)O)n1` + Cc1[nH]c2ccc(F)cc2c1-c1nc2c3cccnc3c3ncccc3c2[nH]1, the viability, T/C was 7.78%.
On the same count and under the same terms, with `CC(C)(O)C1CCC(Nc2ccc3ncc(-c4cccc(C(F)(F)F)c4)n3n2)CC1` (configuration not stated) + Cc1[nH]c2ccc(F)cc2c1-c1nc2c3cccnc3c3ncccc3c2[nH]1 the figure was 21.4%.
On the same count and under the same terms, with `COc1ncnc(C2CC2)c1-c1ncc2cnn(Cc3ccc(-c4nc(C(F)(F)F)cn4C(C)C)cc3)c2n1` + Cc1[nH]c2ccc(F)cc2c1-c1nc2c3cccnc3c3ncccc3c2[nH]1 the figure was 96.9%; with `O=C(NO)c1cnc(N2CCN(S(=O)(=O)c3ccc4ccccc4c3)CC2)nc1` + Cc1[nH]c2ccc(F)cc2c1-c1nc2c3cccnc3c3ncccc3c2[nH]1, 0.16%.

The assay is the same for the next values; noted with them: second compound 3.16 µM; first compound 10 µM; active compounds read low; spheroids with HUVEC and MSC.
`C=CCn1c(=O)c2cnc(Nc3ccc(N4CCN(C)CC4)cc3)nc2n1-c1cccc(C(C)(C)O)n1` + Cc1[nH]c2ccc(F)cc2c1-c1nc2c3cccnc3c3ncccc3c2[nH]1: the viability, T/C was 12.1%.
The same measure, in the same setting: as for `CC(C)(O)C1CCC(Nc2ccc3ncc(-c4cccc(C(F)(F)F)c4)n3n2)CC1` (configuration not stated) + Cc1[nH]c2ccc(F)cc2c1-c1nc2c3cccnc3c3ncccc3c2[nH]1, the figure is 31.4%.
As to `COc1ncnc(C2CC2)c1-c1ncc2cnn(Cc3ccc(-c4nc(C(F)(F)F)cn4C(C)C)cc3)c2n1` + Cc1[nH]c2ccc(F)cc2c1-c1nc2c3cccnc3c3ncccc3c2[nH]1, the viability, T/C is 89.8%.
For the compound `O=C(NO)c1cnc(N2CCN(S(=O)(=O)c3ccc4ccccc4c3)CC2)nc1` + Cc1[nH]c2ccc(F)cc2c1-c1nc2c3cccnc3c3ncccc3c2[nH]1, the viability, T/C is 0.16%.

The same assay, now with this note: second compound 10 µM; first compound 0.0316 µM; active compounds read low; spheroids with HUVEC and MSC.
As to `C=CCn1c(=O)c2cnc(Nc3ccc(N4CCN(C)CC4)cc3)nc2n1-c1cccc(C(C)(C)O)n1` + Cc1[nH]c2ccc(F)cc2c1-c1nc2c3cccnc3c3ncccc3c2[nH]1, the viability, T/C is 100%.
As to `CC(C)(O)C1CCC(Nc2ccc3ncc(-c4cccc(C(F)(F)F)c4)n3n2)CC1` (configuration not stated) + Cc1[nH]c2ccc(F)cc2c1-c1nc2c3cccnc3c3ncccc3c2[nH]1, the viability, T/C was 87.6%.
Turning to `COc1ncnc(C2CC2)c1-c1ncc2cnn(Cc3ccc(-c4nc(C(F)(F)F)cn4C(C)C)cc3)c2n1` + Cc1[nH]c2ccc(F)cc2c1-c1nc2c3cccnc3c3ncccc3c2[nH]1, the viability, T/C was 102%.
As for `O=C(NO)c1cnc(N2CCN(S(=O)(=O)c3ccc4ccccc4c3)CC2)nc1` + Cc1[nH]c2ccc(F)cc2c1-c1nc2c3cccnc3c3ncccc3c2[nH]1, the viability, T/C is 93.6%.

Staying with this assay, now noted: second compound 10 µM; first compound 0.1 µM; active compounds read low; spheroids with HUVEC and MSC.
As for `C=CCn1c(=O)c2cnc(Nc3ccc(N4CCN(C)CC4)cc3)nc2n1-c1cccc(C(C)(C)O)n1` + Cc1[nH]c2ccc(F)cc2c1-c1nc2c3cccnc3c3ncccc3c2[nH]1, the viability, T/C was 78.4%.
For the compound `CC(C)(O)C1CCC(Nc2ccc3ncc(-c4cccc(C(F)(F)F)c4)n3n2)CC1` (configuration not stated) + Cc1[nH]c2ccc(F)cc2c1-c1nc2c3cccnc3c3ncccc3c2[nH]1, the viability, T/C was 81.3%.
Take `COc1ncnc(C2CC2)c1-c1ncc2cnn(Cc3ccc(-c4nc(C(F)(F)F)cn4C(C)C)cc3)c2n1` + Cc1[nH]c2ccc(F)cc2c1-c1nc2c3cccnc3c3ncccc3c2[nH]1: the viability, T/C was 92.9%.
Turning to `O=C(NO)c1cnc(N2CCN(S(=O)(=O)c3ccc4ccccc4c3)CC2)nc1` + Cc1[nH]c2ccc(F)cc2c1-c1nc2c3cccnc3c3ncccc3c2[nH]1, the viability, T/C is 90.2%.

Still in this assay, the particulars now being: second compound 10 µM; first compound 0.316 µM; active compounds read low; spheroids with HUVEC and MSC.
Turning to `C=CCn1c(=O)c2cnc(Nc3ccc(N4CCN(C)CC4)cc3)nc2n1-c1cccc(C(C)(C)O)n1` + Cc1[nH]c2ccc(F)cc2c1-c1nc2c3cccnc3c3ncccc3c2[nH]1, the viability, T/C is 57.6%.
Regarding `CC(C)(O)C1CCC(Nc2ccc3ncc(-c4cccc(C(F)(F)F)c4)n3n2)CC1` (configuration not stated) + Cc1[nH]c2ccc(F)cc2c1-c1nc2c3cccnc3c3ncccc3c2[nH]1, the viability, T/C was 89%.
Regarding `COc1ncnc(C2CC2)c1-c1ncc2cnn(Cc3ccc(-c4nc(C(F)(F)F)cn4C(C)C)cc3)c2n1` + Cc1[nH]c2ccc(F)cc2c1-c1nc2c3cccnc3c3ncccc3c2[nH]1, the viability, T/C is 96.7%.
Take `O=C(NO)c1cnc(N2CCN(S(=O)(=O)c3ccc4ccccc4c3)CC2)nc1` + Cc1[nH]c2ccc(F)cc2c1-c1nc2c3cccnc3c3ncccc3c2[nH]1: the viability, T/C was 76.9%.

Staying with this assay, now noted: second compound 10 µM; first compound 1 µM; active compounds read low; spheroids with HUVEC and MSC.
For `C=CCn1c(=O)c2cnc(Nc3ccc(N4CCN(C)CC4)cc3)nc2n1-c1cccc(C(C)(C)O)n1` + Cc1[nH]c2ccc(F)cc2c1-c1nc2c3cccnc3c3ncccc3c2[nH]1, the viability, T/C is 14.1%.
`CC(C)(O)C1CCC(Nc2ccc3ncc(-c4cccc(C(F)(F)F)c4)n3n2)CC1` (configuration not stated) + Cc1[nH]c2ccc(F)cc2c1-c1nc2c3cccnc3c3ncccc3c2[nH]1: the viability, T/C was 59.6%.
Consider `COc1ncnc(C2CC2)c1-c1ncc2cnn(Cc3ccc(-c4nc(C(F)(F)F)cn4C(C)C)cc3)c2n1` + Cc1[nH]c2ccc(F)cc2c1-c1nc2c3cccnc3c3ncccc3c2[nH]1, for which the viability, T/C was 86.8%.
Regarding `O=C(NO)c1cnc(N2CCN(S(=O)(=O)c3ccc4ccccc4c3)CC2)nc1` + Cc1[nH]c2ccc(F)cc2c1-c1nc2c3cccnc3c3ncccc3c2[nH]1, the viability, T/C is 17.7%.

Staying with this assay, now noted: second compound 10 µM; first compound 3.16 µM; active compounds read low; spheroids with HUVEC and MSC.
Regarding `C=CCn1c(=O)c2cnc(Nc3ccc(N4CCN(C)CC4)cc3)nc2n1-c1cccc(C(C)(C)O)n1` + Cc1[nH]c2ccc(F)cc2c1-c1nc2c3cccnc3c3ncccc3c2[nH]1, the viability, T/C was 7.95%.
Take `CC(C)(O)C1CCC(Nc2ccc3ncc(-c4cccc(C(F)(F)F)c4)n3n2)CC1` (configuration not stated) + Cc1[nH]c2ccc(F)cc2c1-c1nc2c3cccnc3c3ncccc3c2[nH]1: the viability, T/C was 21.7%.
On to `COc1ncnc(C2CC2)c1-c1ncc2cnn(Cc3ccc(-c4nc(C(F)(F)F)cn4C(C)C)cc3)c2n1` + Cc1[nH]c2ccc(F)cc2c1-c1nc2c3cccnc3c3ncccc3c2[nH]1, for which the viability, T/C is 83.5%.
Consider `O=C(NO)c1cnc(N2CCN(S(=O)(=O)c3ccc4ccccc4c3)CC2)nc1` + Cc1[nH]c2ccc(F)cc2c1-c1nc2c3cccnc3c3ncccc3c2[nH]1, for which the viability, T/C was 0.22%.

Staying with this assay, now noted: second compound 10 µM; first compound 10 µM; active compounds read low; spheroids with HUVEC and MSC.
For `C=CCn1c(=O)c2cnc(Nc3ccc(N4CCN(C)CC4)cc3)nc2n1-c1cccc(C(C)(C)O)n1` + Cc1[nH]c2ccc(F)cc2c1-c1nc2c3cccnc3c3ncccc3c2[nH]1, the viability, T/C was 12.3%.
As to `CC(C)(O)C1CCC(Nc2ccc3ncc(-c4cccc(C(F)(F)F)c4)n3n2)CC1` (configuration not stated) + Cc1[nH]c2ccc(F)cc2c1-c1nc2c3cccnc3c3ncccc3c2[nH]1, the viability, T/C is 30.7%.
The same measure, in the same setting: as for `COc1ncnc(C2CC2)c1-c1ncc2cnn(Cc3ccc(-c4nc(C(F)(F)F)cn4C(C)C)cc3)c2n1` + Cc1[nH]c2ccc(F)cc2c1-c1nc2c3cccnc3c3ncccc3c2[nH]1, the figure is 95.1%.
Same read-out and setting: with `O=C(NO)c1cnc(N2CCN(S(=O)(=O)c3ccc4ccccc4c3)CC2)nc1` + Cc1[nH]c2ccc(F)cc2c1-c1nc2c3cccnc3c3ncccc3c2[nH]1 the figure was 0.21%.

The viability, T/C is the result in the treated group divided by that in the control group, in per cent.
